The results in this text go back to patent US9632088B2, “Methods and compositions for gamma-secretase assay” (MEMORIAL SLOAN-KETTERING CANCER CENTER, priority 2010, dated 2017).

A word on the IC50: it is the concentration that inhibits the measured activity by half.

Assay [1] addresses T1, wild-type PS1 γ-secretase (Homo sapiens, UniProt P49768).
T1 construct: total membrane
The experiment in a line: In vitro N1-Sb1 γ-secretase assay, membrane of N2a cells expressing wild-type PS1. In kind it is biochemical, murine. The following applies: wild-type PS1; read-out: IC50 of γ-secretase inhibition (N1-Sb1 cleavage). How it is done:
(§1) HeLa membrane fraction was isolated from HeLa-S3 cells (National Cell Culture Center). The cell pellet was resuspended in Buffer A (50 mM MES, 150 mM KCl, 5 mM CaCl2, 5 mM MgCl2) and lysed by passage through a French Press. N2a cells (murine neuroblastoma cells) over-expressing wild-type PS1, or mutants M146L or E280A, were obtained from Dr. Sangram Sisodia (University of Chicago, Chicago, Ill.). These cells were maintained in 50% Dulbecco's modified Eagle's medium high glucose, 50% Opti-Mem Reduced Serum Media, and 10% fetal calf serum. Cultured cells were pelleted by centrifugation and resuspended in hypotonic buffer (40 mM Tris, pH 7.4, 10 mM NaCl, 1 mM EDTA, and 0.5 mM DTT) for 20 minutes before being lysed with a dounce homogenizer. Nuclear debris from the HeLa and N2a cells were pelleted at 3000 rpm for 30 minutes. The resulting supernatants were ultracentrifuged at 100,000×g for 1 hour. The pellet that contained total cell membrane was resuspended in Buffer A. Mouse brains overexpressing knock-in wild type or M146V PS1 (gift from Dr. Hui Zheng, Amylin Pharmaceuticals, San Diego, Calif.) were homogenized with dounce homogenizer. The cell lysate was centrifuged at 3000 rpm for 30 minutes. The supernatants were ultracentrifuged at 100,000×g for 1 hour. Protein concentration was determined with the DC Protein Assay Kit according to the manufacturer's instructions (Bio-Rad, Hercules, Calif.).
(§2) An in vitro γ-secretase assay using a novel recombinant APP-derived substrate (termed “Sb4”) is disclosed in co-pending application U.S. Ser. No. 12/776,141. In the present assay based on a Notch-derived substrate, N1-Sb1 was incubated with the cell membrane fraction, prepared as described above, in the presence of 0.25% CHAPSO and 1×PIPES buffer (50 mM PIPES, pH 7.0, 150 mM KCl, 5 mM CaCl2, 5 mM MgCl2. The reaction was incubated at 37° C. for 2 hours. The Perkin Elmer AlphaScreen™ detection system was employed to assay for Notch cleavage. AlphaScreen (PerkinElmer Life and Analytical Sciences, Shelton, Conn.) is a bead based non-radioactive Amplified Luminescent Proximity Homogeneous Assay (ALPHA). When a biological interaction brings the beads together, a cascade of chemical reactions acts to produce a greatly amplified signal. Specifically, upon laser excitation, a photosensitizer in the “Donor” bead converts ambient (triplet) oxygen to the more reactive singlet state. The singlet state oxygen molecules diffuse into the solvent, and may react with a thioxene derivative in the Acceptor bead if nearby, generating chemiluminescence at 370 nm that further activates fluorophores contained in the same bead. The fluorophores subsequently emit light at 520-620 nm. In the absence of a specific biological interaction, the singlet state oxygen molecules produced by the donor bead go undetected without the close proximity of the acceptor bead. As a result no fluorescence signal at 520-620 nm is produced.
(§3) In the present system, antibody SM320, Protein A-conjugated acceptor beads, and Streptavidin-conjugated donor beads (PerkinElmer) were added to the reaction at a final concentration of 0.2 μg/ml, 2.5 μg/ml and 5 μg/ml, respectively (diagrammed in FIG. 5A). The reaction was incubated in the dark at room-temperature for 4 hours. The ALPHA signal was detected using the Envision plate reader (Perkin Elmer). The reactions were excited at 680 nm and signal was detected at 615 nm.
(§4) The effects of PS1 FAD mutations on Notch cleavage were determined using the new γ-secretase assay described in Example 2. The activities of two PS1 FAD mutations—PS1 M146L and E280A were compared against wild-type PS1 (WT), which has been previously studied (25). Total membrane was isolated from N2a cells that stably express WT, M146L, or E280A mutants. N1-Sb1 was incubated with these membranes and the resulting cN1-Sb1 was detected with SM320. […] The M146L and E280A mutants had 40% and 14% activity remaining, respectively, compared to the activity of the wild type (FIG. 7A). […]

Assay [2] has as its target T2, M146L PS1 γ-secretase (Homo sapiens, UniProt P49768, M146L).
T2 construct: total membrane
The experiment in a line: In vitro N1-Sb1 γ-secretase assay, membrane of N2a cells expressing M146L PS1. The following applies: M146L PS1; read-out: IC50 of γ-secretase inhibition (N1-Sb1 cleavage). The class given is biochemical, murine. How it is done:
as §1, §2, §3, §4

Assay [3] has as its target T3, γ-secretase (Homo sapiens, UniProt P49768).
T3 construct: endogenous in cells; host or cells: HEK293 cells transiently transfected with myc-tagged N1-ΔE (substrate only)
The experiment in a line: Cell-based Notch cleavage assay, immunostaining with SM320, HEK293 cells transfected with N1-ΔE. The conditions noted are these: 1 μM inhibitor, 48 hours. How it is done:
HEK293 cells were seeded in a 4-well chamber slide (Lab-tek) and transfected with N1-ΔE as in the preceding paragraph, using Fugene 6 transfection reagents (Roche Applied Science, Mannheim, Germany). Transfected cells were then treated with either DMSO at a 1% final concentration or 1 μM Compound E.
After 48 hours of treatment, the cells were washed with PBS, fixed with cold methanol and permeabilized with 0.25% Tween-20. SM320 and anti-myc antibodies were added to detect NICD and full length N1-ΔE, respectively. Alexa Fluor-488 (Invitrogen, San Diego, Calif.) conjugated anti-rabbit and Alexa Fluor-594 (Invitrogen) conjugated anti-mouse antibodies were used as corresponding secondary antibodies. 4′,6-diamidino-2-phenylindole (DAPI) was used to stain cell nuclei. Finally, fluorescent images were captured with a Leica TCS Sp2 AOBS laser scanning confocal microscope (Memorial Sloan-Kettering Cancer Center Molecular Cytology Core Facility). Alternatively, REK 293 cells overexpressing N1-ΔE were treated with DMSO or Compound E, and were then collected through centrifugation and embedded in paraffin. The cell pellets were sliced and mounted on glass slides. […]
SM320 was further characterized using immunostaining analysis. […] Using confocal microscopy, it was shown that N1-ΔE protein, as detected by anti-myc antibody, is expressed in cells transfected with the construct (FIG. 6B, panel 2). […]

With `CC(NC(=O)Cc1cc(F)cc(F)c1)C(=O)NC1N=C(c2ccccc2)c2ccccc2N(C)C1=O` (stereo not drawn) [Compound E], the figures for the IC50 in assay [1] and in assay [2] were 0.78 nM and 0.76 nM, respectively. Besides, the “detection of NICD by SM320 immunostaining” value in assay [3] is “not in cells treated with Compound E”.
In the case of `CC(C)C[C@H](NC(=O)[C@H](Cc1ccccc1)C[C@@H](O)[C@H](Cc1ccccc1)NC(=O)OC(C)(C)C)C(=O)N[C@@H](Cc1ccccc1)C(N)=O` [L458], the results for the IC50 in assay [1] and in assay [2] were 0.5 nM and 0.45 nM, respectively. For the same compound, the “detection of NICD by SM320 immunostaining” value in assay [3] is reported as “No spots of any color are observed”.
